Test results published in publication PMC3928712 (ACS chemical biology, 2013).

Biological target: 2009 pandemic H1N1 (pH1N1) PAN endonuclease (Influenza A virus, UniProt C3W5S0)
Details: for improvement in inhibitory activity compared to 2: relative to compound 2

Row | SMILES | improvement in inhibitory activity compared to 2 | IC50 (enzymatic assay, PAN endonuclease)
1 | O=c1[nH]c(-c2ccc(F)cc2)c(-c2ccc(F)cc2)cc1O [Compound 6] | 400 fold | 
2 | O=c1[nH]cc(Br)cc1O [Compound 2] |  | 16 µM
3 | O=c1[nH]c(-c2ccccc2)ccc1O [Compound 4] | 40 fold | 
4 | N#Cc1cccc(-c2c[nH]c(=O)c(O)c2)c1 [Compound 3] | 20 fold | 
